Test results: ChEMBL document CHEMBL3046001, “4-Thiazolidinone and 1-thia-3,4,9-triaza fluorene conjugates: synthesis, characterization and antimicrobial screening” (2013)
≈ marks a conversion by molar mass, not a printed value.

Experiments:
Format in all cases: functional
Pseudomonas aeruginosa [1] = test: Antibacterial activity against Pseudomonas aeruginosa MTCC 424 assessed as growth inhibition after 24 hr by tube dilution method; settings: MTCC 424, 24 h
Bacillus pumilus [2] = test: Antibacterial activity against Bacillus pumilus MTCC 1456 assessed as growth inhibition at 10 ug/mL after 48 hr by agar diffusion method; settings: MTCC 1456, 48 h, read-out: DIZ
Micrococcus luteus [3] = test: Antibacterial activity against Micrococcus luteus MTCC 1538 assessed as growth inhibition at 10 ug/mL after 48 hr by agar diffusion method; settings: MTCC 1538, 48 h, read-out: DIZ
Escherichia coli = test: Antibacterial activity against Escherichia coli MTCC 1573 assessed as growth inhibition at 10 ug/mL after 48 hr by agar diffusion method; settings: MTCC 1573, 48 h, read-out: DIZ
Micrococcus luteus [4] = test: Antibacterial activity against Micrococcus luteus MTCC 1538 assessed as growth inhibition after 24 hr by tube dilution method; settings: MTCC 1538, 24 h
Bacillus pumilus [5] = test: Antibacterial activity against Bacillus pumilus MTCC 1456 assessed as growth inhibition after 24 hr by tube dilution method; settings: MTCC 1456, 24 h
Bacillus subtilis [6] = test: Antibacterial activity against Bacillus subtilis MTCC 441 assessed as growth inhibition at 10 ug/mL after 48 hr by agar diffusion method; settings: MTCC 441, 48 h, read-out: DIZ
Bacillus subtilis [7] = test: Antibacterial activity against Bacillus subtilis MTCC 441 assessed as growth inhibition after 24 hr by tube dilution method; settings: MTCC 441, 24 h
Pseudomonas fluorescens [8] = test: Antibacterial activity against Pseudomonas fluorescens MTCC 2421 assessed as growth inhibition after 24 hr by tube dilution method; settings: MTCC 2421, 24 h
Staphylococcus aureus [9] = test: Antibacterial activity against Staphylococcus aureus MTCC 1430 assessed as growth inhibition after 24 hr by tube dilution method; settings: MTCC 1430, 24 h
Pseudomonas fluorescens [10] = test: Antibacterial activity against Pseudomonas fluorescens MTCC 2421 assessed as growth inhibition at 10 ug/mL after 48 hr by agar diffusion method; settings: MTCC 2421, 48 h, read-out: DIZ
Pseudomonas aeruginosa [11] = test: Antibacterial activity against Pseudomonas aeruginosa MTCC 424 assessed as growth inhibition at 10 ug/mL after 48 hr by agar diffusion method; settings: MTCC 424, 48 h, read-out: DIZ
Staphylococcus aureus [12] = test: Antibacterial activity against Staphylococcus aureus MTCC 1430 assessed as growth inhibition at 10 ug/mL after 48 hr by agar diffusion method; settings: MTCC 1430, 48 h, read-out: DIZ
Penicillium chrysogenum [13] = test: Antifungal activity against Penicillium chrysogenum MTCC 161 assessed as growth inhibition at 10 ug/mL after 48 hr by agar diffusion method; settings: MTCC 161, 48 h, read-out: DIZ
Aspergillus niger [14] = test: Antifungal activity against Aspergillus niger MTCC 2546 assessed as growth inhibition at 10 ug/mL after 48 hr by agar diffusion method; settings: MTCC 2546, 48 h, read-out: DIZ
Aspergillus niger [15] = test: Antifungal activity against Aspergillus niger MTCC 2546 assessed as growth inhibition after 24 hr by tube dilution method; settings: MTCC 2546, 24 h
Penicillium chrysogenum [16] = test: Antifungal activity against Penicillium chrysogenum MTCC 161 assessed as growth inhibition after 24 hr by tube dilution method; settings: MTCC 161, 24 h

SMILES	MIC (Pseudomonas aeruginosa [1])	zone of inhibition at 10 µg/mL (Bacillus pumilus [2])	zone of inhibition at 10 µg/mL (Micrococcus luteus [3])	zone of inhibition at 10 µg/mL (Escherichia coli)	MIC (Micrococcus luteus [4])	MIC (Bacillus pumilus [5])	zone of inhibition at 10 µg/mL (Bacillus subtilis [6])	MIC (Bacillus subtilis [7])	MIC (Pseudomonas fluorescens [8])	MIC (Staphylococcus aureus [9])	zone of inhibition at 10 µg/mL (Pseudomonas fluorescens [10])	zone of inhibition at 10 µg/mL (Pseudomonas aeruginosa [11])	zone of inhibition at 10 µg/mL (Staphylococcus aureus [12])	zone of inhibition at 10 µg/mL (Penicillium chrysogenum [13])	zone of inhibition at 10 µg/mL (Aspergillus niger [14])	MIC (Aspergillus niger [15])	MIC (Penicillium chrysogenum [16])
CCn1cc(C(=O)O)c(=O)c2cc(F)c(N3CCNCC3)cc21 [NORFLOXACIN]	2.5 µg/mL (≈ 7.83 µM)	30 mm	24 mm	25 mm	2.5 µg/mL (≈ 7.83 µM)	1.25 µg/mL (≈ 3.91 µM)	25 mm	2.5 µg/mL (≈ 7.83 µM)	2.5 µg/mL (≈ 7.83 µM)	5 µg/mL (≈ 15.7 µM)	27 mm	26 mm	22 mm	–	–	–	–
OC(Cn1cncn1)(Cn1cncn1)c1ccc(F)cc1F [FLUCONAZOLE]	–	–	–	–	–	–	–	–	–	–	–	–	–	23 mm	22 mm	2.5 µg/mL (≈ 8.16 µM)	1.25 µg/mL (≈ 4.08 µM)
